This is an account of results in patent publication EP0096569A2, “Triazole antifungal agents” (Pfizer Limited, priority 1982, dated 1983).

Structures are written as SMILES.

The assay has as its system Candida albicans. The experiment in a line: in vivo evaluation in mice inoculated with Candida albicans (protection against lethal infection, PD50). Further details: unit not given beside the values. As to conditions: oral, dose level giving 50% protection against the lethal effect of the infection. As for the experimental part: The in vivo evaluation of the compounds can be carried out at a series of dose levels by intraperitoneal or intravenous injection or by oral administration, to mice which are inoculated with a strain of Candida albicans. Untreated mice die within 48 hours and the dose level at which the compound provides 50% protection against the lethal effect of the infection (PDSO) is noted.
Activity Data in mice (oral PD50 values)
`Clc1ccc(C(Cl)(Cn2cncn2)Cn2cncn2)c(Cl)c1` [Product of Example 1, 1,3-Bis-(1H-1,2,4-triazol-1-yl)-2-chloro-2-(2,4-dichlorophenyl) propane] came in with a PD50 of 0.1.
The value for `Clc1ccc(C(Br)(Cn2cncn2)Cn2cncn2)c(Cl)c1` [Product of Example 2, 1,3-Bis(lH-1,2,4-triazol-1-yl)-2-bromo-2-(2,4-dichlorophenyl) propane] was 0.03; that for `Fc1ccc(C(Br)(Cn2cncn2)Cn2cncn2)c(F)c1` [Product of Example 3, 1,3-Bis(1H-1,2,4-triazol-1-yl)-2-bromo-2-(2,4-difluorophenyl)propane] was 0.3; that for `FC(Cn1cncn1)(Cn1cncn1)c1ccc(Cl)cc1Cl` [Product of Example 4, 1,3-Bis(1H-1,2,4-triazol-1-yl)-2-(2,4-dichlorophenyl)-2-fluoro-propane] was 1.8.
The value for `Fc1cc(C(Cl)(Cn2cncn2)Cn2cncn2)c(F)cc1Br` [Product of Example 5] was 1.6.
Compound `Fc1ccc(C(Cl)(Cn2cncn2)Cn2cncn2)c(F)c1` [Product of Example 6] gave a PD50 of 0.9.
To `ClC(Cn1cncn1)(Cn1cncn1)c1ccc(I)cc1` [Product of Example 7] belongs 0.2.
To `Clc1ccc(C(Cl)(Cn2cncn2)Cn2cncn2)cc1` [Product of Example 8] belongs 0.3; to `Clc1ccc(C(Cl)(Cn2cncn2)Cn2cncn2)nc1` [Product of Example 9, 1,3-Bis(1A-1,2,4-triazol-1-yl)-2-chloro-2-(5-chloropyrid-2-yl)propane], 0.2.
